In PMC6056499, “A systematic dissection of sequence elements determining β-Klotho and FGF interaction and signaling” (Scientific Reports, 2018):
Like-named read-outs stand apart in the source and are kept apart here. No end group written: not given here.

Assays:
β-Klotho = target: T1, β-Klotho (Homo sapiens, UniProt Q86Z14); test: AlphaScreen competition binding assay (inhibition of β-Klotho binding to biotinylated FGF19 or FGF21); settings: Suppl Fig S6A, 20 nM β-Klotho ECD 6×His, 40 nM biotinylated human FGF21, d.n.c. = did not converge
T1 construct: the ECD of human β-Klotho (aa1–992) fused with a 6 × His tag at the C-terminus; made in house
T1 sequence (Q86Z14 1-992): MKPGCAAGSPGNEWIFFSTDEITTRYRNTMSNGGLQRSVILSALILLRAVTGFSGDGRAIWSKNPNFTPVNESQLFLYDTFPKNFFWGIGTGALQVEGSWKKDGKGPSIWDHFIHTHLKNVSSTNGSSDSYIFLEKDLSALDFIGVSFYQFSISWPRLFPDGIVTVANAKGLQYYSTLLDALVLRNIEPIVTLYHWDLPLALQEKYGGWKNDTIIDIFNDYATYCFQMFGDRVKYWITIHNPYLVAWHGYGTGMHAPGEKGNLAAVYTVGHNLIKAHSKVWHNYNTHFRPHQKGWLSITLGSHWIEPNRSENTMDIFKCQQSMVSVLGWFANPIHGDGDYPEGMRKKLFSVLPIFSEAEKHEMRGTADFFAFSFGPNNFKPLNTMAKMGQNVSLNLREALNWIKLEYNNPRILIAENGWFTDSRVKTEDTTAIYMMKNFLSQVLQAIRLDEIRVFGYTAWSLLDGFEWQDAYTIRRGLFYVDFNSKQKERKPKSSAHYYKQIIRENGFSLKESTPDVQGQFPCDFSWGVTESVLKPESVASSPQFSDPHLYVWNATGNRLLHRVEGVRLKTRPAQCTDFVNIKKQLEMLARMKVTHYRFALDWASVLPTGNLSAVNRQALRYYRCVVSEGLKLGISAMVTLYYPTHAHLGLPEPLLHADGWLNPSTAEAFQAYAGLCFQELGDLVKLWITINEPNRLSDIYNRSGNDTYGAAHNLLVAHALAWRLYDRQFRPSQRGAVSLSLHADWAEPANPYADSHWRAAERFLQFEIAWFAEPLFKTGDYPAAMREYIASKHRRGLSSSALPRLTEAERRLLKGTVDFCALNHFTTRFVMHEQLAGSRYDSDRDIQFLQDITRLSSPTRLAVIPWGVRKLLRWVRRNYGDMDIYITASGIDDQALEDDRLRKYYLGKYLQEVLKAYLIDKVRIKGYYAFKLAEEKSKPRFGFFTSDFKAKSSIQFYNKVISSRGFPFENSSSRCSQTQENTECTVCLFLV
Method: FGF19 and FGF21 C-terminal WT and mutant peptides were custom synthesized and purified (>95% purity) (LifeTein LLC, South Plainfield, NJ). Binding of FGF19 and FGF21 peptides to β-Klotho was assessed using an AlphaScreen® assay. Briefly, 20 nM of β-Klotho ECD 6 × His, varying amounts of FGF19 and 21 peptides, and 40 nM of biotinylated human FGF19 or FGF21 protein were prepared in AlphaLISA universal buffer (PerkinElmer) and added to individual wells in 384-well white opaque plates (Greiner Bio-One). Subsequently, streptavidin donor beads and nickel chelate (Ni-NTA) acceptor beads (AlphaScreen Histidine detection kit; PerkinElmer) were diluted to 40 µg/mL and added to the plates. Total reaction volume was 8 µL. Plates were incubated for 3 hours at room temperature protected from light and read on the EnVision Multilabel Plate Reader (PerkinElmer) according to the manufacturer’s instructions. Assays were performed in triplicate. IC50 values were determined from a three-parameter logistic regression model with the least squares fit using GraphPad Prism version 7.

β-Klotho/FGFR complex = test: Elk1-luciferase reporter assay in HEK293T reporter cells transiently transfected with full-length WT β-Klotho; format: cell-based, human; settings: 6 h treatment, mean ± SD of three independent experiments, read-out: EC50, stimulation of Elk1-luciferase reporter activity (KLB WT)
Method: (§1) To measure the signaling activity of β-Klotho mutants, ELK luciferase assay was performed in HEK293T cells that were stably transfected with reporter constructs containing 5 × UAS upstream of luciferase and Gal4 DNA-binding domain fused to ELK1. Briefly, HEK293T reporter cells were maintained in DMEM supplemented with 10% (v/v) FBS (Gibco) and 2 mM GlutaMax (Gibco) in a 37 °C incubator with 5% CO2. Cells were plated on 96-well plates in growth medium and incubated overnight. The next day, cells were transfected with expression vectors encoding full-length β-Klotho WT or mutants using the Lipofectamine 2000 transfection reagent (Invitrogen) according to the manufacturer’s protocol. Cells were serum-starved in DMEM supplemented with 5% (v/v) FBS (Gibco) and 2 mM GlutaMax (Gibco) overnight the day after transfection and treated with FGF21 for 6 hours at 37 °C with 5% CO2, after which the cells were lysed in Bright-Glo luciferase reagent (Promega). Luciferase activity was measured in relative luminescence units on the EnVision Multilabel Plate Reader (PerkinElmer) according to the manufacturer’s instructions. All assays were performed in duplicates. EC50 values were determined from a three-parameter logistic regression model with the least squares fit using GraphPad Prism version 7.

[1] = test system: FGFR (expressed endogenously in HEK293T reporter cells); test: Elk1-luciferase reporter assay in HEK293T reporter cells without β-Klotho (no KLB); format: cell-based, human; settings: d.n.c = did not converge
Method: as §1, with “The next day, cells were transfected with expression vectors encoding full-length β-Klotho WT or mutants using the Lipofectamine 2000 transfection reagent (Invitrogen) according to the manufacturer’s protocol.” left out

For PQPPDVGSSDALSMVGPSQGRSPSYAS [193P-A], the “IC50, competition with FGF21 (FGF21 C-terminal peptides)” value (β-Klotho) was “d.n.c”.
With “FGF19: mature human FGF19 protein, endocrine fibroblast growth factor” the EC50 (β-Klotho/FGFR complex; Fig 3D) was 2.88 ± 1.43 nM and the “EC50, stimulation of Elk1-luciferase reporter activity (no KLB)” value ([1]; Fig 3D) was “d.n.c”.
“FGF1: a prototypical paracrine FGF [reference compound]” gave an EC50 (β-Klotho/FGFR complex; Fig 3A) of 0.038 ± 0.024 nM and an EC50 ([1]; Fig 3A, mean ± SD of three independent experiments, read-out: EC50, stimulation of Elk1-luciferase reporter activity (no KLB)) of 0.049 ± 0.037 nM.
For PQPPDVGSSDPLSMVGPSQGASPSYAS [203R-A], the IC50 (β-Klotho; read-out: IC50, competition with FGF21 (FGF21 C-terminal peptides)) was 7.3 nM.
For PQPPDAGSSDPLSMVGPSQGRSPSYAS [188V-A], the “IC50, competition with FGF21 (FGF21 C-terminal peptides)” value (β-Klotho) was “d.n.c”.
